{"source": "patent US8354121B2", "about": "“Tape preparation” (Dainippon Sumitomo Pharma Co., Ltd., priority 2006, dated 2013)", "origin": "cited, not measured here", "key": {"dopamine D2 receptor": {"molecular_target": "dopamine D2 receptor (Homo sapiens, UniProt P14416)", "sequence (P14416 whole entry, species assumed)": "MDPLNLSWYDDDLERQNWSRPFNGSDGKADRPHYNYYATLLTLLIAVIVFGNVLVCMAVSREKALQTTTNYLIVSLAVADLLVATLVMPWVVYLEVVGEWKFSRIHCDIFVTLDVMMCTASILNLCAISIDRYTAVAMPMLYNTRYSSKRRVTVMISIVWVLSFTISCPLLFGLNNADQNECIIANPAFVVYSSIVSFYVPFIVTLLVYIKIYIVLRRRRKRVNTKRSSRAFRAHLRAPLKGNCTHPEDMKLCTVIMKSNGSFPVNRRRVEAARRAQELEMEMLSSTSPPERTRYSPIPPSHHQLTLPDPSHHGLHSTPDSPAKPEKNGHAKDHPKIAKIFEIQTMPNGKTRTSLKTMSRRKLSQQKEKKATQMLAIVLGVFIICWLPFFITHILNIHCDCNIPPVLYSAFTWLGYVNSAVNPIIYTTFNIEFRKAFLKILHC", "conditions": "compared with haloperidol"}, "serotonin 5-HT2 receptor": {"system": "serotonin 5-HT2 receptor", "conditions": "compared with haloperidol"}}}
{"compound": "CCN1CCN(c2cc(-c3ccc(F)cc3)c3c(n2)CCCCCC3)CC1", "note": "[Compound A, 2-(4-ethyl-1-piperazinyl)-4-(4-fluorophenyl)-5,6,7,8,9,10-hexahydrocycloocta[b]pyridine]", "values": [{"measurement": "affinity for dopamine D2 receptor", "setting": "dopamine D2 receptor", "result": "higher affinity"}, {"measurement": "affinity for serotonin 5-HT2 receptor", "setting": "serotonin 5-HT2 receptor", "result": "higher affinity"}]}
